Measured values from publication PMC5517430, “2,3,7,8-Tetrachlorodibenzo-p-dioxin (TCDD)-elicited effects on bile acid homeostasis: Alterations in biosynthesis, enterohepatic circulation, and microbial metabolism” (Scientific Reports, 2017).

Test system: hepatic gene expression
Experiment: Hepatic RNA-Seq differential gene expression (fold change, P1(t), ED50, BMD, BMDL)
Type: in vivo, mouse
Experimental: Frozen ileal epithelium scrapings and liver samples were homogenized in TRIzol (Ambion, Waltham, MA) using a Mixer Mill 300 tissue homogenizer (Retsch, Germany) and total RNA was isolated as previously described. RNA was quantified using a Nano-drop spectrophotometer (Thermo Scientific, Wilmington, DE) at 260 nm, and purity was assessed using the A260/A280 ratio and the Caliper LabChip GX (Perkin Elmer, Waltham, MA).
Dose-dependent gene expression was examined using RNA-Seq performed at the MSU Research Technology Support Facility (RTSF) Genomics Core (rtsf.natsci.msu.edu/genomics). Ileal libraries from three independent biological replicates (n = 3) were prepared using the Ovation Mouse RNA-Seq System 1–16 sample preparation kit (NuGen, San Carlos, CA), with an additional DNase step. Libraries were quantified and sequenced as previously described, using a read depth of ~30 M per sample[33], [67]. Quality was determined using FASTQC v0.11.3 and adaptor sequences were removed using Trimmomatic v0.33. Reads were mapped to the mouse reference genome (GRCm38 release 81) using Bowtie2 v2.2.6 and TopHat2 v2.1.0. Alignments were converted to SAM format using SAMTools v1.2.0. For TCDD-mediated differential gene expression, fold changes were calculated relative to vehicle controls. Hepatic RNA-Seq analysis was previously published. Genes were considered differentially expressed if |fold change| ≥ 1.5 and statistical P1(t) value ≥ 0.8 at one or more doses. RNA-Seq datasets for the ileal epithelium and liver were deposited in the Gene Expression Omnibus (GEO; accession number GSE89430 and GSE87519, respectively). The RNA-Seq results (fold changes, P1(t) values) for each gene discussed in the manuscript have been compiled in Supplementary Table S1. […] Estimation of benchmark dose (BMD) and BMD lower confidence limit (BMDL) was performed using BMDExpress[69] as previously described, and has been included in Supplementary Table S1.

[1] = liver, 0.01 µg/kg TCDD, relative to vehicle control
[2] = liver, 0.03 µg/kg TCDD, relative to vehicle control
[3] = liver, 0.1 µg/kg TCDD, relative to vehicle control
[4] = liver, 0.3 µg/kg TCDD, relative to vehicle control
[5] = liver, 1 µg/kg TCDD, relative to vehicle control
[6] = liver, 3 µg/kg TCDD, relative to vehicle control
[7] = liver, 10 µg/kg TCDD, relative to vehicle control
[8] = liver, 30 µg/kg TCDD, relative to vehicle control
[9] = male mice, 30 µg/kg TCDD every 4 d for 28 d
[10] = male mice, TCDD every 4 d for 28 d

Clc1cc2c(cc1Cl)Oc1cc(Cl)c(Cl)cc1O2 [TCDD, 2,3,7,8-tetrachlorodibenzo-p-dioxin]
Slc6a6 (TAUT) BMD (liver): 11.24 µg/kg TCDD
Slc6a6 (TAUT) BMDL (liver): 8.25 µg/kg TCDD
Slc6a6 (TAUT) Differentially Expressed? (liver): YES
Slc6a6 (TAUT) ED50 (liver): 13.27 µg/kg TCDD
Slc10a1 (NTCP or LBAT) BMD (liver): 9.13 µg/kg TCDD
Slc10a1 (NTCP or LBAT) BMDL (liver): 4.73 µg/kg TCDD
Slc10a1 (NTCP or LBAT) Differentially Expressed? (liver): YES
Slc10a1 (NTCP or LBAT) ED50 (liver): 14.43 µg/kg TCDD
Slc27a5 BMD (liver): 4.42 µg/kg TCDD
Slc27a5 BMDL (liver): 3.04 µg/kg TCDD
Slc27a5 Differentially Expressed? (liver): YES
Slc27a5 ED50 (liver): 11.65 µg/kg TCDD
Slco1a1 (OATP1A1) BMD (liver): 8.64 µg/kg TCDD
Slco1a1 (OATP1A1) BMDL (liver): 3.68 µg/kg TCDD
Slco1a1 (OATP1A1) Differentially Expressed? (liver): YES
Slco1a1 (OATP1A1) ED50 (liver): 10.06 µg/kg TCDD
Slco1a4 (OATP1A4) BMD (liver): 0.56 µg/kg TCDD
Slco1a4 (OATP1A4) BMDL (liver): 0.000105 µg/kg TCDD
Slco1a4 (OATP1A4) Differentially Expressed? (liver): YES
Slco1a4 (OATP1A4) ED50 (liver): Not sigmoidal
Slco1b2 (OATP1B2) BMD (liver): 6.99 µg/kg TCDD
Slco1b2 (OATP1B2) BMDL (liver): 4.27 µg/kg TCDD
Slco1b2 (OATP1B2) Differentially Expressed? (liver): YES
Slco1b2 (OATP1B2) ED50 (liver): 12.87 µg/kg TCDD
Slco2b1 (OATP2B1) BMD (liver): 4.52 µg/kg TCDD
Slco2b1 (OATP2B1) BMDL (liver): 2.69 µg/kg TCDD
Slco2b1 (OATP2B1) Differentially Expressed? (liver): YES
Slco2b1 (OATP2B1) ED50 (liver): 11.16 µg/kg TCDD
Soat1 BMD (liver): No model fit
Soat1 BMDL (liver): No model fit
Soat1 Differentially Expressed? (liver): YES
Soat1 ED50 (liver): 8.88 µg/kg TCDD
Soat2 BMD (liver): 7.18 µg/kg TCDD
Soat2 BMDL (liver): 5.55 µg/kg TCDD
Soat2 Differentially Expressed? (liver): YES
Soat2 ED50 (liver): Not sigmoidal
Sqle BMD (liver): No model fit
Sqle BMDL (liver): No model fit
Sqle Differentially Expressed? (liver): YES
Sqle ED50 (liver): 19.37 µg/kg TCDD
Srebf2 BMD (liver): 8.52 µg/kg TCDD
Srebf2 BMDL (liver): 4.75 µg/kg TCDD
Srebf2 Differentially Expressed? (liver): YES
Srebf2 ED50 (liver): 15.74 µg/kg TCDD
Sult2a8 BMD (liver): 1.73 µg/kg TCDD
Sult2a8 BMDL (liver): 1.40 µg/kg TCDD
Sult2a8 Differentially Expressed? (liver): YES
Sult2a8 ED50 (liver): 11.63 µg/kg TCDD
Tm7sf2 BMD (liver): 14.47 µg/kg TCDD
Tm7sf2 BMDL (liver): 11.85 µg/kg TCDD
Tm7sf2 Differentially Expressed? (liver): YES
Tm7sf2 ED50 (liver): 17.41 µg/kg TCDD
Slc6a6 (TAUT) FC_0.01 [1]: 0.98
Slc10a1 (NTCP or LBAT) FC_0.01 [1]: 1.06
Slc27a5 FC_0.01 [1]: 0.96
Slco1a1 (OATP1A1) FC_0.01 [1]: 1.85
Slco1a4 (OATP1A4) FC_0.01 [1]: 0.83
Slco1b2 (OATP1B2) FC_0.01 [1]: 0.99
Slco2b1 (OATP2B1) FC_0.01 [1]: 1.02
Soat1 FC_0.01 [1]: 0.61
Soat2 FC_0.01 [1]: 1.08
Sqle FC_0.01 [1]: 1.57
Srebf2 FC_0.01 [1]: 1.04
Sult2a8 FC_0.01 [1]: 1.07
Tm7sf2 FC_0.01 [1]: 1.06
Slc6a6 (TAUT) FC_0.03 [2]: 0.99
Slc10a1 (NTCP or LBAT) FC_0.03 [2]: 1.13
Slc27a5 FC_0.03 [2]: 0.89
Slco1a1 (OATP1A1) FC_0.03 [2]: 1.27
Slco1a4 (OATP1A4) FC_0.03 [2]: 0.81
Slco1b2 (OATP1B2) FC_0.03 [2]: 1.11
Slco2b1 (OATP2B1) FC_0.03 [2]: 0.97
Soat1 FC_0.03 [2]: 0.71
Soat2 FC_0.03 [2]: 1.02
Sqle FC_0.03 [2]: 1.40
Srebf2 FC_0.03 [2]: 1.10
Sult2a8 FC_0.03 [2]: 1.00
Tm7sf2 FC_0.03 [2]: 0.92
Slc6a6 (TAUT) FC_0.1 [3]: 1.04
Slc10a1 (NTCP or LBAT) FC_0.1 [3]: 0.87
Slc27a5 FC_0.1 [3]: 0.83
Slco1a1 (OATP1A1) FC_0.1 [3]: 0.82
Slco1a4 (OATP1A4) FC_0.1 [3]: 0.42
Slco1b2 (OATP1B2) FC_0.1 [3]: 1.02
Slco2b1 (OATP2B1) FC_0.1 [3]: 0.91
Soat1 FC_0.1 [3]: 1.03
Soat2 FC_0.1 [3]: 1.01
Sqle FC_0.1 [3]: 1.57
Srebf2 FC_0.1 [3]: 1.00
Sult2a8 FC_0.1 [3]: 0.89
Tm7sf2 FC_0.1 [3]: 0.82
Slc6a6 (TAUT) FC_0.3 [4]: 1.15
Slc10a1 (NTCP or LBAT) FC_0.3 [4]: 1.02
Slc27a5 FC_0.3 [4]: 0.88
Slco1a1 (OATP1A1) FC_0.3 [4]: 1.03
Slco1a4 (OATP1A4) FC_0.3 [4]: 0.87
Slco1b2 (OATP1B2) FC_0.3 [4]: 1.08
Slco2b1 (OATP2B1) FC_0.3 [4]: 0.92
Soat1 FC_0.3 [4]: 0.85
Soat2 FC_0.3 [4]: 1.22
Sqle FC_0.3 [4]: 2.08
Srebf2 FC_0.3 [4]: 1.06
Sult2a8 FC_0.3 [4]: 0.81
Tm7sf2 FC_0.3 [4]: 1.05
Slc6a6 (TAUT) FC_1 [5]: 1.28
Slc10a1 (NTCP or LBAT) FC_1 [5]: 1.21
Slc27a5 FC_1 [5]: 0.86
Slco1a1 (OATP1A1) FC_1 [5]: 1.33
Slco1a4 (OATP1A4) FC_1 [5]: 0.45
Slco1b2 (OATP1B2) FC_1 [5]: 1.13
Slco2b1 (OATP2B1) FC_1 [5]: 1.01
Soat1 FC_1 [5]: 0.53
Soat2 FC_1 [5]: 1.23
Sqle FC_1 [5]: 1.92
Srebf2 FC_1 [5]: 0.99
Sult2a8 FC_1 [5]: 0.89
Tm7sf2 FC_1 [5]: 0.89
Slc6a6 (TAUT) FC_3 [6]: 1.14
Slc10a1 (NTCP or LBAT) FC_3 [6]: 1.09
Slc27a5 FC_3 [6]: 0.81
Slco1a1 (OATP1A1) FC_3 [6]: 1.24
Slco1a4 (OATP1A4) FC_3 [6]: 0.40
Slco1b2 (OATP1B2) FC_3 [6]: 0.92
Slco2b1 (OATP2B1) FC_3 [6]: 0.90
Soat1 FC_3 [6]: 0.77
Soat2 FC_3 [6]: 1.08
Sqle FC_3 [6]: 1.74
Srebf2 FC_3 [6]: 0.93
Sult2a8 FC_3 [6]: 0.65
Tm7sf2 FC_3 [6]: 1.24
Slc6a6 (TAUT) FC_10 [7]: 1.16
Slc10a1 (NTCP or LBAT) FC_10 [7]: 0.56
Slc27a5 FC_10 [7]: 0.48
Slco1a1 (OATP1A1) FC_10 [7]: 0.0276
Slco1a4 (OATP1A4) FC_10 [7]: 0.46
Slco1b2 (OATP1B2) FC_10 [7]: 0.65
Slco2b1 (OATP2B1) FC_10 [7]: 0.40
Soat1 FC_10 [7]: 1.16
Soat2 FC_10 [7]: 0.80
Sqle FC_10 [7]: 2.07
Srebf2 FC_10 [7]: 0.85
Sult2a8 FC_10 [7]: 0.12
Tm7sf2 FC_10 [7]: 0.97
Slc6a6 (TAUT) FC_30 [8]: 1.84
Slc10a1 (NTCP or LBAT) FC_30 [8]: 0.056
Slc27a5 FC_30 [8]: 0.06
Slco1a1 (OATP1A1) FC_30 [8]: 0.000843
Slco1a4 (OATP1A4) FC_30 [8]: 0.40
Slco1b2 (OATP1B2) FC_30 [8]: 0.13
Slco2b1 (OATP2B1) FC_30 [8]: 0.08
Soat1 FC_30 [8]: 3.59
Soat2 FC_30 [8]: 0.51
Sqle FC_30 [8]: 0.23
Srebf2 FC_30 [8]: 0.37
Sult2a8 FC_30 [8]: 0.00374
Tm7sf2 FC_30 [8]: 0.0549
Fgfr4 hepatic expression, fold repression [9]: 4.7 fold
Hmgcr hepatic expression [9]: no significant induction
Klb hepatic expression, fold repression [9]: 8.1 fold
Srebf2 hepatic expression, fold repression [9]: 2.7 fold
Hmgcr hepatic expression, max fold induction (male mice, 0.3–10 µg/kg TCDD every 4 d for 28 d): 3.4 fold
Abcb11 hepatic expression, fold repression [10]: 4.7 fold
Abcc2 hepatic expression [10]: unchanged
Akr1c6 hepatic expression, fold repression [10]: 22.1 fold
Akr1d1 hepatic expression, fold repression [10]: 16.3 fold
Amacr hepatic expression, fold repression [10]: 3.3 fold
Baat hepatic expression, fold repression [10]: 12.0 fold
Cdo1 hepatic expression, fold repression [10]: 2.7 fold
Ch25h hepatic expression, fold induction [10]: 6.1 fold
Csad hepatic expression, fold repression [10]: 4.5 fold
Cyp3a11 hepatic expression, fold repression [10]: 4.9 fold
Cyp3a13 hepatic expression, fold repression [10]: 17.0 fold
Cyp3a16 hepatic expression, fold repression [10]: 5.2 fold
Cyp3a25 hepatic expression, fold repression [10]: 6.0 fold
Cyp3a44 hepatic expression, fold repression [10]: 3.0 fold
Cyp3a57 hepatic expression, fold repression [10]: 2.4 fold
Cyp3a59 hepatic expression, fold repression [10]: 4.4 fold
Cyp7a1 hepatic expression, fold repression [10]: 39.7 fold
Cyp7b1 hepatic expression, fold repression [10]: 7.6 fold
Cyp8b1 hepatic expression, fold repression [10]: 4.4 fold
Cyp27a1 hepatic expression, fold repression [10]: 2.4 fold
Cyp46a1 hepatic expression, fold repression [10]: 2.1 fold
Hsd3b7 hepatic expression, fold repression [10]: 2.5 fold
Nr0b2 hepatic expression, fold repression [10]: 22.2 fold
Nr1h4 hepatic expression, fold repression [10]: 3.2 fold
Scp2 hepatic expression, fold repression [10]: 3.4 fold
Slc10a1 hepatic expression, fold repression [10]: 17.9 fold
Slc27a5 hepatic expression, fold repression [10]: 16.0 fold
Slco1a1 hepatic expression, fold repression [10]: 1186.3 fold
Slco1a4 hepatic expression, fold repression [10]: 2.5 fold
Slco1b2 hepatic expression, fold repression [10]: 7.9 fold
Slco2b1 hepatic expression, fold repression [10]: 12.9 fold
Sult2a8 hepatic expression, fold repression [10]: 267.5 fold
